Experimental data as given in patent US8110547B2, “Compositions for buccal delivery of parathyroid hormone” (Emisphere Technologies, Inc., priority 2005, dated 2012).
Where two headings read alike, the source gives them in different places.

How the values were obtained:
[1] = Serum PTH pharmacokinetics after oral and buccal administration to rats; type: in vivo, Male Sprague Dawley rats; details: rat, 0.2 mg/kg PTH with 200 mg/kg monosodium 4-MOAC; for AUC(0-inf) / AUC(0-t) / Cmax / Tmax: male, Sprague Dawley, serum, 0.2 mg/kg
Description: A stock solution of human recombinant PTH (1-34) was prepared by dissolving hPTH (1-34) (Eli Lilly, Indianapolis, Ind.) in deionized water to a concentration of 4 mg/ml. A stock solution of delivery agent was prepared by dissolving the delivery agent in deionized water. The pH of the resulting delivery agent solution was adjusted to between 7.5 and 8.5. A liquid buccal dosage form was prepared by mixing the PTH stock solution with the delivery agent stock solution immediately prior to dosing. For the present example, four dosage forms were prepared as described below.
The dosage forms were administered to Male Sprague Dawley rats, ranging in weight from about 250 g to about […]. Each rat was anesthesized with 2% isofiurane in pure oxygen during the whole experiment. The femoral artery was cannulated for blood sampling. The esophagus was ligated to prevent wallowing of the dosing solution. The trachea was intubated and the rat was provided with a constant flow of 2% isofiurane in oxygen.
The liquid dosage form was administered by inserting a T-shaped dosing tool into the mouth of the rat. The center of the dosing tool was placed under the tongue and the liquid dosage form (approximately […] body weight) was administered by syringe through the dosing tool, such that the dosage was distributed evenly throughout the buccal area. Following administration, the mouth was glued shut. Blood samples were drawn at predetermined periods from the femoral artery and assayed for PTH. The liquid dosage solution was allowed to remain in the buccal area for 90 minutes (e.g., the dosing duration). After 90 minutes the liquid dosage solution was removed from the buccal area by syringe.
The concentration of PTH was determined using a PTH (1-34) immunradiometric assay kit (Immutopics, San Clemente, Calif.). Samples were prepared by storage for 20 minutes between 2° C. and 8° C., followed by centrifugation at 10,000 G for 10 minutes to obtain serum. The serum concentration of PTH was than determined using a PTH (1-34) immunradiometric assay kit.
A liquid dosage form was prepared as described above wherein the dosage amount of monosodium 4-MOAC was 200 mg/kg and the dosage amount of PTH was 0.2 mg/kg. The dosage form was administered buccally as described above. Oral administration was carried out by anesthetizing the rat with a mixture of ketamine (44 mg/kg) and thorazine (1.5 mg/kg), followed by administration of the oral dosage by a gavaging trocar. The dosing duration for buccal administration was 5 and 60 minutes respectively. Blood samples were drawn from the rat as described above and the serum concentration of PTH was determined as described previously.

[2] = Pharmacokinetics after buccal, oral and subcutaneous administration of PTH to dogs; type: in vivo; details: dog; for AUC(0-t) / Cmax / Tmax / F rel: in vivo; for F rel: bioavailability relative to subcutaneous administration, read-out: AUC0−>t BA (%)
Description: The animal was moderately sedated using 0.4-0.8 mg/kg midazolam (IM) and 0.03-0.04 mg/kg medetomidine IV or IM in order to minimize the risk of the animal swallowing the test material. The level of sedation was continuously monitored and respiratory rate and general activity level was noted. Once adequately sedated, the dog was moved to a flat surface and an intravenous catheter was placed in the cephalic vein. For dose application, the dog was placed on its side with its head and jaw angled to maximally hold the test material in the mouth.
For an aqueous dosing solution, a syringe filled with the dosing solution (up to 1.5 ml) was placed sublingually and infused slowly up to 0.75 ml in an equal amount at the right and left space under the tongue of the dog. For sublingual tablet, the tablets were placed under the tongue and up to 1.5 ml of saline was administered to facilitate the sublingual dissolution. On one hour post-administration, any remaining formulation was removed by syringe aspiration and the area was rinsed once with saline solution and the saline solution that was then removed by a syringe aspiration.
Once the animal recovered from the sedatives, restraint-acclimated animals was restrained using a sling for the duration of the experiment. Blood samples were collected at specific time-points, i.e., 0, 0.25, 0.5, 1, 1.5, 2, 2.5 and up to 4 hours.
For comparison of the dosing route with intraoral delivery, an oral tablet dosing study was followed. The equivalent dose of drug and carrier was prepared to be the oral formulation of tablets that were gavaged, and 1 ml of water was administered into the gavaging tubing.
The final two columns in Table 2 show the relative bioavailability to subcutaneous administration by buccal and oral administrations of PTH to dog, and the respective coefficient of variations.

[3] = buccal 5 min dosing duration versus oral
[4] = buccal 60 min dosing duration versus oral
[5] = buccal (sublingual), formulation removed one hour post-administration

CC[C@H](C)[C@H](NC(=O)[C@H](CCC(=O)O)NC(=O)[C@H](CO)NC(=O)[C@@H](NC(=O)[C@@H](N)CO)C(C)C)C(=O)N[C@@H](CCC(N)=O)C(=O)N[C@@H](CC(C)C)C(=O)N[C@@H](CCSC)C(=O)N[C@@H](Cc1cnc[nH]1)C(=O)N[C@@H](CC(N)=O)C(=O)N[C@@H](CC(C)C)C(=O)NCC(=O)N[C@@H](CCCCN)C(=O)N[C@@H](Cc1cnc[nH]1)C(=O)N[C@@H](CC(C)C)C(=O)N[C@@H](CC(N)=O)C(=O)N[C@@H](CO)C(=O)N[C@@H](CCSC)C(=O)N[C@@H](CCC(=O)O)C(=O)N[C@@H](CCCN=C(N)N)C(=O)N[C@H](C(=O)N[C@@H](CCC(=O)O)C(=O)N[C@@H](Cc1c[nH]c2ccccc12)C(=O)N[C@@H](CC(C)C)C(=O)N[C@@H](CCCN=C(N)N)C(=O)N[C@@H](CCCCN)C(=O)N[C@@H](CCCCN)C(=O)N[C@@H](CC(C)C)C(=O)N[C@@H](CCC(N)=O)C(=O)N[C@@H](CC(=O)O)C(=O)N[C@H](C(=O)N[C@@H](Cc1cnc[nH]1)C(=O)N[C@@H](CC(N)=O)C(=O)N[C@@H](Cc1ccccc1)C(=O)O)C(C)C)C(C)C [PTH, human recombinant PTH (1-34)]
AUC(0-inf) ([1]; buccal, 5 min dosing duration): 2.8 ng·h/mL
AUC(0-t) ([1]; buccal, 5 min dosing duration): 0.975 ng·h/mL
Cmax ([1]; buccal, 5 min dosing duration): 1.7 ng/mL
Tmax ([1]; buccal, 5 min dosing duration): 5 min
AUC(0-inf) ([1]; buccal, 60 min dosing duration): 3.44 ng·h/mL
AUC(0-t) ([1]; buccal, 60 min dosing duration): 1.29 ng·h/mL
Cmax ([1]; buccal, 60 min dosing duration): 1.82 ng/mL
Tmax ([1]; buccal, 60 min dosing duration): 15 min
AUC(0-inf) ([1]; po, oral gavage): 2.62 ng·h/mL
AUC(0-t) ([1]; po, oral gavage): 10.4 ng·h/mL
Cmax ([1]; po, oral gavage): 1.43 ng/mL
Tmax ([1]; po, oral gavage): 15 min
Buccal:Oral AUC0−>t Ratio [1, 3]: 0.94
Buccal:Oral AUC0−>∞ Ratio [1, 3]: 1.1
Buccal:Oral AUC0−>t Ratio [1, 4]: 1.2
Buccal:Oral AUC0−>∞ Ratio [1, 4]: 1.3
AUC0−>t BA (%) ([2]; subcutaneous (reference route)): 100%
AUC(0-t) ([2]; sc, subcutaneous): 8.47 ng·h/mL
Cmax ([2]; sc, subcutaneous): 6.39 ± 1.97 ng/mL
Tmax ([2]; sc, subcutaneous): 26 min
AUC(0-t) [2, 5]: 2.82 ng·h/mL
Cmax [2, 5]: 3.35 ± 2.65 ng/mL
Tmax [2, 5]: 62 min
F rel ([2]; buccal): 3.3%
AUC(0-t) ([2]; oral tablets gavaged): 0.41 ng·h/mL
Cmax ([2]; oral tablets gavaged): 0.632 ± 0.568 ng/mL
Tmax ([2]; oral tablets gavaged): 23 min
F rel ([2]; oral): 4.8%
